Series [1] is described as follows: n-Octanol/water partition coefficient, shake flask method. Format: physicochemical. The procedure: Both hydrophilicity and lipophilicity studies were performed to determine the tumour-inhibiting potential of the metal complexes. These complexes were highly soluble in DMSO and moderately soluble in H2O, MeOH, EtOH and CH3CN. […] The lipophilicity of these complexes was determined by performing an n-octanol/water partition coefficient (log Po/w, where Po/w = the octanol/water partition coefficient) study using the shake flask method (Table 1).[24] The experimental log Po/w values of these complexes were determined to be in the range of 0.27–0.34 (Table 1). […] This change in the electrolytic behaviour of the complexes from 1 : 1 to 1 : 2 can be attributed to the dissociation of the Ir–Cl bond and subsequent aquation of the complexes. […]
n-Octanol–water partition coefficient (log P o/w)9
The log Po/w of the iridium complexes were adhering to shake flask method using the previously published procedure. A known amount of each complex (IrL1-IrL5) was suspended in water (pre-saturated with n-octanol) and shaken for 48 h on an orbital shaker.
To allow the phase separation, the solution was centrifuged for 10 min at 3000 rpm. To obtain the partition coefficient, different ratios (0.5: 1, 1: 1, and 2: 1) of the saturated solutions were shaken with pre-saturated n-octanol for 20 min on an orbital shaker and followed the same procedure. Aliquots of the aqueous and octanol layers were pipetted out separately and the absorbances were measured with UV-Vis spectrophotometer using proper dilution. Each set was performed in triplicate, concentration of the substances in each layer was calculated using the respective molar extinction coefficients and the partition coefficient (log P o/w) values were obtained from the ratio.

Series [2] relates to MDA-MB-468 cells. Description: MTT in vitro cytotoxicity assay, triple negative breast cancer cells. It is filed as cell-based. The settings on record: MDA-MB-468, MTT, 48 h. On the procedure: The in vitro cytotoxicity of complexes IrL1–IrL5 and cisplatin were investigated using the typical 3-(4,5-dimethylthiazol-2-yl)-2,5-diphenyltetrazolium bromide (MTT) assay protocol against a panel of triple negative cancer cell line MDA-MB-468. The cells were initially incubated with the all test compounds at concentrations ranging from 0.5–50 μM for 48 h in vitro.
Cytotoxicity study of all the synthesized compounds against triple negative breast cancer cells MDA-MB-468 and immortalized human keratinocyte cell line HaCaT were done with a drug incubation period of 48 h by following standard procedure that were mentioned in ESI. ^† Preliminary studies were done to understand the mode of action of the complex to induce cytotoxicity using flow cytometric methods.
For doing the cell culture the cells were retained in DMEM media (Gibco), added with 10% fetal bovine serum (Himedia, India), 1% penicillin and streptomycin and 1% of Glutmax (Gibco, Thermo Scientific, USA) at 37°C in 5% CO2. When the cells attained 70%-80% confluency they were trypsinized using 0.25% trypsin-EDTA (Thermo Fisher Scientific, […]
In vitro cytotoxicity study was measured by standard MTT assay protocol.1 First the prepared complexes (IrL1-IrL5) were dissolved in 0.1% DMSO followed by dilution with DMEM medium. One cancer cell lines i.e. triple negative breast cancer cells (MDA-MB-468) and one normal cell line i.e. immortalized human keratinocyte cell line (HaCaT) were used for this assay. Approximately 1×10^4 cells per well were cultured in 100 μl of a growth medium in 96-well plates and then incubated under 5% CO2 atmosphere at 37°C temperature. Then the incubated cells were treated with different concentrations of the complexes in the volume of […]. The cisplatin was taken as standard positive control for this experiment. The Cells which were in the control wells, also engaged the same volume of medium containing 0.1% DMSO. After 48 h, the medium was superfluous and cell cultures were again incubated with 100 μL of MTT reagent (1 mg/ml) for 5 h at 37 °C. Then the resultant suspension was kept on micro vibrator for 10 min and the absorbance was recorded at λ = 570 nm in ELISA plate reader. The experiment was also performed in triplicate. The data were represented as the growth inhibition percentage i.e. % growth inhibition = 100 − [(AD × 100)/AB], where AD, measured absorbance in wells which contain samples and AB, measured absorbance for blank wells (cells with a medium and a vehicle). […]

Another series in a line: Solubility study. It is filed as physicochemical. The settings on record: DMSO-10% DMEM medium (1 : 99 v/v, comparable to cell media). The procedure: Both hydrophilicity and lipophilicity studies were performed to determine the tumour-inhibiting potential of the metal complexes. These complexes were highly soluble in DMSO and moderately soluble in H2O, MeOH, EtOH and CH3CN. […] The lipophilicity of these complexes was determined by performing an n-octanol/water partition coefficient (log Po/w, where Po/w = the octanol/water partition coefficient) study using the shake flask method (Table 1).[24] The experimental log Po/w values of these complexes were determined to be in the range of 0.27–0.34 (Table 1). […] This change in the electrolytic behaviour of the complexes from 1 : 1 to 1 : 2 can be attributed to the dissociation of the Ir–Cl bond and subsequent aquation of the complexes.

The subject of series [3] is MDA-MB-468 cells. Description: ROS generation, DCFDA staining. Format: cell-based. The note with it: positive control. On the procedure: Our results indicated a dose dependent increase in ROS production in the MDA-MB-468 cells treated with IrL1 concentrations 1 μM and 3 μM. The extent of ROS production is indicated by the 2′,7′-dichlorofluorescein (DCF) formed by the deacetylation and subsequent oxidation of 2′,7′-dichlorofluorescin diacetate (DCFDA) through cellular esterases and ROS. […] ROS production was absent in untreated control. However, in the positive control, treated with H2O2, ROS production was high which is ∼99% (Fig. 11).
Colocalization study and ROS generation studies were performed using live cell lines in their log phase.

In series [4] the test system is MDA-MB-468 cells. Description: Mitochondrial membrane potential, JC-1 staining, flow cytometry. Format: cell-based. The note with it: positive control. The procedure: The cells treated with the mitochondrial uncoupler CCCP (carbonyl cyanide m-chlorophenylhydrazone), which mediates the dissipation of mitochondrial membrane potential, served as positive control for the detection of mitochondrial dysfunction. […] Unstained control represented in Fig. 10A has been used for gating purposes. […]

For the molecule “[Iridium(III)-Cp*-2-((3aR,7aR)-3a,7a-dihydro-1H-indol-3-yl)-1H-imidazo[4,5-f][1,10]phenanthroline]PF6 [IrL4]”, the “log P (n-octanol/water partition coefficient)” value in series [1] stood at 0.02 ± 0.05. Besides, inhibition in the series on MDA-MB-468 cells [2] was half-maximal at 5.2 µM (IC50). Besides, in the series “Solubility study”, the Solubility – broadly, how much of the substance goes into solution per volume – stood at 900 µM.

As to `OO` [H2O2, reference compound], the ROS production in the series on MDA-MB-468 cells [3] is approximately 99%.

On to `N#CC(C#N)=NNc1cccc(Cl)c1` [CCCP, carbonyl cyanide m-chlorophenylhydrazone, reference compound], for which, in the series with MDA-MB-468 cells [4], the “cells retaining healthy mitochondria (JC-1 aggregates)” value is approximately 20% and the “cells with damaged mitochondria (JC-1 monomers)” value is approximately 79%.

Turning to “[Iridium(III)-Cp*-2-(anthracen-1-yl)-1H-imidazo[4,5-f][1,10]phenanthroline]PF6 [IrL2]”, the “log P (n-octanol/water partition coefficient)” value in series [1] was 0.34 ± 0.07. Also, the IC50 (commonly the midpoint of a concentration-inhibition curve) in the series with MDA-MB-468 cells [2] stood at 20.4 µM. In addition, in the series “Solubility study”, the Solubility stood at 600 µM.

Regarding “[Iridium(III)-Cp*-3-(1H-imidazo[4,5-f][1,10]phenanthrolin-2-yl)-4H-chromen-4-one]PF6 [IrL3]”, the “log P (n-octanol/water partition coefficient)” value in series [1] is −0.23 ± 0.2. For the same molecule, the half-inhibitory concentration (IC50) in the series on MDA-MB-468 cells [2] turned out to be 20.3 µM. Moreover, in “Solubility study”, the Solubility worked out at 1200 µM.

Regarding “[Iridium(III)-Cp*-2-((3aR,7aR)-3a,7a-dihydrobenzo[b]thiophen-2-yl)-1H-imidazo[4,5-f][1,10]phenanthroline]PF6 [IrL5]”, the “log P (n-octanol/water partition coefficient)” value in series [1] was determined as 0.29 ± 0.08. This molecule also showed an IC50 in the series on MDA-MB-468 cells [2] of 4.41 µM. In addition, the Solubility in “Solubility study” was determined as 700 µM.

The values are drawn from paper PMC9016803, “Mitochondria-targeted half-sandwich iridium(III)-Cp*-arylimidazophenanthroline complexes as antiproliferative and bioimaging agents against triple negative breast cancer cells MDA-MB-468” (RSC Advances, 2022).
